The text below walks through data of BindingDB's records for doi:10.7270/Q290226P (Vanderbilt Screening Center For Gpcrs, Ion Channels and …, 2010).

SMILES strings stand for the structures. pEC50: −log10 of the molar value. Some results are limits rather than exact numbers.

In this assay the target is T1, Muscarinic acetylcholine receptor M5 (Homo sapiens, UniProt P08912).
T1 sequence (P08912 whole entry): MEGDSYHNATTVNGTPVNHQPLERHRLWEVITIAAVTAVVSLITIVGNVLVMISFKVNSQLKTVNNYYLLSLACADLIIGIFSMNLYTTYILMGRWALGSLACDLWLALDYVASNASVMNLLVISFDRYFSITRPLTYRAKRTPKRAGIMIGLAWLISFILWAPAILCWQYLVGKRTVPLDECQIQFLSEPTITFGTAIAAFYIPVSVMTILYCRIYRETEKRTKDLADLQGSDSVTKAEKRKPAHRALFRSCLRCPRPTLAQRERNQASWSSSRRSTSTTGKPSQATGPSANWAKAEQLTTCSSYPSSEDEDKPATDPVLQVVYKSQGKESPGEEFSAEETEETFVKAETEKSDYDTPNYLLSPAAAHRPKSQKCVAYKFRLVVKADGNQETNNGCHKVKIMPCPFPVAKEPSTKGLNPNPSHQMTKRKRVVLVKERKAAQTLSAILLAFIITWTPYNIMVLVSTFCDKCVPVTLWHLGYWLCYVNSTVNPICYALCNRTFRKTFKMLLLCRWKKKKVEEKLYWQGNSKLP
Nature of the assay: PubChem AID 2186.

What is called pEC50 is the EC50 on a negative log10 scale, so that one unit is a factor of ten. As for `O=C1C(=O)N(Cc2ccc(-c3ccccc3)cc2)c2ccc(OC(F)(F)F)cc21`, the pEC50 is under 6.35.
The same measure for `O=C1C(=O)N(Cc2ccc(-c3ccsc3)cc2)c2ccc(OC(F)(F)F)cc21`: under 6.35; for `COc1ccc(CN2C(=O)C(=O)c3cc(OC(F)(F)F)ccc32)cc1` [VU0238429]: 9.29.
